In US20090062536A1, “USE OF SULFONANILIDE COMPOUNDS AS HERBICIDE” (Bayer CropScience AG, priority 2007, published 2009):

Key:
transplanted rice = experiment: Herbicidal damage on transplanted paddy rice, paddy field pot test; format: in vivo, Oryza sativa L. cultivar: Nihonbare; details: 125 g ai/ha applied onto water surface 5 days after transplanting; rated 3 weeks after treatment; 100% complete withering, 0% no damage
Excerpt: (§1) Test of herbicidal effect to weeds and damage on paddy rice in a paddy field: In a greenhouse, each three paddy rice seedlings (Oryza sativa L. cultivar: Nihonbare) were transplanted in each pot filled with paddy field soil. Each twenty forced sprouts of paddy rice (Oryza sativa L. cultivar: Nihonbare) were also inoculated in each pot. Then, any of seeds or tubers of Cyperus difformis L., Echinochloa crus-galli, Scirpus juncoides, SU-resistant Scirpus juncoides, annual broad leaf weeds (including Lindernia procumbens Philcox, Rotala indica Koehne, and Elatine triandra Schk), SU-resistant annual broad leaf weeds, Sagittaria pygmaea Miq, Cyperus serotinus Rottboel was inoculated in the pot and covered with water in about 2 to 3 cm depth. Five days after transplanting paddy rice, prescribed diluted solutions of formulations of the respective active compounds were applied onto the water surface. Each of the formulations was prepared as an emulsion by mixing 1 part by weight of active compound with 5 parts by weight of carrier and 1 part by weight of emulsifier (benzyloxy polyglycol ether). After the treatment, water depth of 3 cm was kept. A herbicidal effect and a herbicidal damage on paddy rice were investigated 3 weeks after the treatment. The herbicidal effect and the herbicidal damage on paddy rice were rated as 100% in the case of complete withering and 0% in the case of no herbicidal effect or no herbicidal damage.

Sagittaria pygmaea = experiment: Herbicidal effect to weeds in a paddy field, pot test; format: in vivo, Sagittaria pygmaea Miq; details: 125 g ai/ha applied onto water surface; rated 3 weeks after treatment; 100% complete withering, 0% no effect
Excerpt: as §1

directley seeded rice = experiment: Herbicidal damage on directly seeded paddy rice, paddy field pot test; format: in vivo, Oryza sativa L. cultivar: Nihonbare; details: 125 g ai/ha applied onto water surface; rated 3 weeks after treatment; 100% complete withering, 0% no damage
Excerpt: as §1

Echinochloa crus-galli = experiment: Herbicidal effect to weeds in a paddy field, pot test; format: in vivo; details: 125 g ai/ha applied onto water surface; rated 3 weeks after treatment; 100% complete withering, 0% no effect
Excerpt: as §1

annual broad leaf weeds = experiment: as above; format: in vivo; details: 125 g ai/ha applied onto water surface; rated 3 weeks after treatment; 100% complete withering, 0% no effect
Excerpt: as §1

Scirpus juncoides = experiment: as above; format: in vivo; details: 125 g ai/ha applied onto water surface; rated 3 weeks after treatment; 100% complete withering, 0% no effect
Excerpt: as §1

[1] = test system: SU-resistant annual broad leaf weeds; experiment: as above; format: in vivo; details: 125 g ai/ha applied onto water surface; rated 3 weeks after treatment; 100% complete withering, 0% no effect
Excerpt: as §1

[2] = test system: SU-resistant Scirpus juncoides; experiment: as above; format: in vivo; details: 125 g ai/ha applied onto water surface; rated 3 weeks after treatment; 100% complete withering, 0% no effect
Excerpt: as §1

Cyperus serotinus = experiment: as above; format: in vivo, Cyperus serotinus Rottboel; details: 125 g ai/ha applied onto water surface; rated 3 weeks after treatment; 100% complete withering, 0% no effect
Excerpt: as §1

SMILES | herbicidal damage on transplanted rice (transplanted rice) [%] | herbicidal effect Sagittaria pygmaea (Sagittaria pygmaea) [%] | herbicidal damage on directley seeded rice (directley seeded rice) [%] | herbicidal effect Echinochloa crus-galli (Echinochloa crus-galli) [%] | herbicidal effect annual broad leaf weeds (annual broad leaf weeds) [%] | herbicidal effect Scirpus juncoides (Scirpus juncoides) [%] | herbicidal effect SU-resistant annual broad leaf weeds [1] [%] | herbicidal effect SU-resistant Scirpus juncoides [2] [%] | herbicidal effect Cyperus serotinus (Cyperus serotinus) [%]
COc1cc(OC)nc(C(SC)c2cccc(I)c2NS(=O)(=O)CC(F)(F)F)n1 (centres unmarked) [Compound 8, 2-iodo-6-[(4,6-dimethoxypyrimidin-2-yl)(methylthio)methyl]-N-2,2,2-trifluoroethanesulfonanilide] | 0 | 100 | 10 | 100 | 100 | 100 | 100 | 90 | 100
COc1cc(OC)nc(C(O)c2cccc(I)c2NS(=O)(=O)CC(F)(F)F)n1 (centres unmarked) [Compound 5, 2-iodo-6-[(4,6-dimethoxypyrimidin-2-yl)(hydroxy)methyl]-N-2,2,2-trifluoroethanesulfonanilide] | 20 | 100 | 30 | 100 | 100 | 100 | 100 | 90 | 100
COc1nc(OC)nc(C(=O)c2cccc(Br)c2N(C)S(=O)(=O)C(F)F)n1 [Compound 10, N-{2-bromo-6-[(4,6-dimethoxy-1,3,5-triazin-2-yl)carbonyl]phenyl}-N-methyl-1,1-difluoromethanesulfonamide] | 10 | 100 | 30 | 100 | 90 | 100 | 100 | 90 | 100
COc1cc(OC)nc(C(SC)c2cccc(Br)c2NS(=O)(=O)CC(F)(F)F)n1 (centres unmarked) [Compound 4, 2-bromo-6-[(4,6-dimethoxypyrimidin-2-yl)methylthiomethyl]-N-2,2,2-trifluoroethanesulfonanilide] | 0 | 100 | 10 | 100 | 100 | 100 | 100 | 90 | 100
COc1cc(OC)nc(C(=O)c2cccc(Br)c2NS(=O)(=O)CC(F)(F)F)n1 [Compound 2, 2-bromo-6-[(4,6-dimethoxypyrimidin-2-yl)carbonyl]-N-2,2,2-trifluoroethanesulfonanilide] | 10 | 100 | 20 | 100 | 100 | 100 | 100 | 100 | 100
COc1cc(OC)nc(C(O)c2cccc(Br)c2NS(=O)(=O)CC(F)(F)F)n1 (centres unmarked) [Compound 1, 2-bromo-6-[(4,6-dimethoxypyrimidin-2-yl)(hydroxy)methyl]-N-2,2,2-trifluoroethanesulfonanilide] | 0 | 100 | 10 | 100 | 100 | 100 | 100 | 100 | 100
COc1cc(Cl)nc(C(=O)c2cccc(Cl)c2N(C)S(=O)(=O)C(F)F)n1 [Compound 51, N-{2-chloro-6-[(4-chloro-6-methoxypyrimidin-2-yl)carbonyl]phenyl}-N-methyl-1,1-difluoromethanesulfonamide] | 10 | 100 | 30 | 100 | 90 | 100 |  | 90 | 100
